In ChEMBL document CHEMBL1145474, “Selective phosphorylation of antiviral drugs by vaccinia virus thymidine kinase” (Antimicrob Agents Chemother, 2007):

Tests used:
Vaccinia virus = experiment: microbe, parasite or virus in culture; assay type: functional, organism-based; conditions: Orthopoxvirus vaccinia, HFF, 1 h
Cowpox virus [1] = experiment: microbe, parasite or virus in culture; assay type: functional, organism-based; conditions: Brighton, HFF, 1 h
Cowpox virus [2] = experiment: microbe, parasite or virus in culture; assay type: functional, organism-based; conditions: HFF, 48 h
Cowpox virus [3] = experiment: microbe, parasite or virus in culture; assay type: functional, organism-based; conditions: HFF, 48 h; remark: listed apart in the source
Human alphaherpesvirus 1 [4] = experiment: microbe, parasite or virus in culture; assay type: functional, organism-based; conditions: Human alphaherpesvirus 1, E377, HFF, 72 h
Human alphaherpesvirus 1 [5] = experiment: microbe, parasite or virus in culture; assay type: functional, organism-based; conditions: Human alphaherpesvirus 1, DM2.1, HFF, 72 h
Human alphaherpesvirus 2 [6] = experiment: microbe, parasite or virus in culture; assay type: functional, organism-based; conditions: Human alphaherpesvirus 2, MS, HFF, 72 h
Human alphaherpesvirus 2 [7] = experiment: microbe, parasite or virus in culture; assay type: functional, organism-based; conditions: Human alphaherpesvirus 2, AG3, HFF, 72 h
Human alphaherpesvirus 3 = experiment: microbe, parasite or virus in culture; assay type: functional, organism-based; conditions: Human alphaherpesvirus 3, Ellen, HFF, 240 h
[8] = substrate: CC1(C)CC(=O)C2=C(C1)OC(N)=C(C#N)C2c1cn([C@H]2C[C@H](O)[C@@H](CO)O2)c(=O)[nH]c1=O; conditions: Orthopoxvirus vaccinia; WR
[9] = substrate: CCOC(=O)/C(C#N)=C/c1cn([C@H]2C[C@H](O)[C@@H](CO)O2)c(=O)[nH]c1=O; conditions: Orthopoxvirus vaccinia; WR
[10] = substrate: N#CC(C#N)=Cc1cn([C@H]2C[C@H](O)[C@@H](CO)O2)c(=O)[nH]c1=O; conditions: Orthopoxvirus vaccinia; WR
[11] = substrate: Nc1nc(=O)n([C@@H]2O[C@H](CO)[C@@H](O)[C@@H]2F)cc1I; conditions: Orthopoxvirus vaccinia; WR
[12] = substrate: O=c1[nH]c(=O)n([C@H]2C[C@H](O)[C@@H](CO)O2)cc1Br; conditions: Orthopoxvirus vaccinia; WR
[13] = substrate: O=c1[nH]c(=O)n([C@H]2C[C@H](O)[C@@H](CO)O2)cc1F; conditions: Orthopoxvirus vaccinia; WR
[14] = substrate: O=c1[nH]cc(C(F)(F)F)c(=O)[nH]1; conditions: Orthopoxvirus vaccinia; WR

## CC1(C)CC(=O)C2=C(C1)OC(N)=C(C#N)C2c1cn([C@H]2C[C@H](O)[C@@H](CO)O2)c(=O)[nH]c1=O (stereo partly specified)
Vaccinia virus
  EC50: 7.9 µM
Cowpox virus [1]
  EC50: 8.4 µM
Cowpox virus [2]
  EC50: 67 µM
Cowpox virus [3]
  EC50: 3.1 µM
Human alphaherpesvirus 1 [4]
  EC50: 7.3 µM
Human alphaherpesvirus 1 [5]
  EC50: 17 µM
Human alphaherpesvirus 2 [6]
  EC50: 13 µM
Human alphaherpesvirus 2 [7]
  EC50: 14 µM
Human alphaherpesvirus 3
  EC50: 9.2 µM
Homo sapiens
  Km: > 200 µM

## O=c1[nH]c(=O)n([C@H]2C[C@H](O)[C@@H](CO)O2)cc1Br
Homo sapiens
  Km: 46 µM

## N#CC1=C(N)OC2=C(C(=O)CCC2)C1c1cn([C@H]2C[C@H](O)[C@@H](CO)O2)c(=O)[nH]c1=O (stereo partly specified)
Vaccinia virus
  EC50: 4.6 µM
Cowpox virus [1]
  EC50: 2 µM
Cowpox virus [2]
  EC50: 67 µM
Cowpox virus [3]
  EC50: 1.9 µM
Human alphaherpesvirus 1 [4]
  EC50: 8.6 µM
Human alphaherpesvirus 1 [5]
  EC50: 13 µM
Human alphaherpesvirus 2 [6]
  EC50: 12 µM
Human alphaherpesvirus 2 [7]
  EC50: 12 µM
Human alphaherpesvirus 3
  EC50: 16 µM

## Nc1ccn(C[C@@H](CO)OCP(=O)(O)O)c(=O)n1 [CIDOFOVIR]
Vaccinia virus
  EC50: 11 µM
Cowpox virus [1]
  EC50: 32 µM
Cowpox virus [2]
  EC50: 16 µM
Cowpox virus [3]
  EC50: 10 µM

## O=c1[nH]c(=O)n([C@H]2C[C@H](O)[C@@H](CO)O2)cc1I [IDOXURIDINE]
Vaccinia virus
  EC50: 5.6 µM
Cowpox virus [1]
  EC50: 1.8 µM
Cowpox virus [2]
  EC50: 76 µM
Cowpox virus [3]
  EC50: 1.1 µM
Homo sapiens
  Km: 38 µM

## O=c1[nH]c(=O)n([C@@H]2O[C@H](CO)[C@@H](O)[C@@H]2F)cc1I
Homo sapiens
  Km: 66 µM

## Nc1nc2c(ncn2COCCO)c(=O)[nH]1 [ACYCLOVIR]
Human alphaherpesvirus 1 [4]
  EC50: 1.3 µM
Human alphaherpesvirus 1 [5]
  EC50: > 444 µM
Human alphaherpesvirus 2 [6]
  EC50: 3.1 µM
Human alphaherpesvirus 2 [7]
  EC50: > 444 µM
Human alphaherpesvirus 3
  EC50: 8.5 µM

## Cc1cn([C@H]2C[C@H](O)[C@@H](CO)O2)c(=O)[nH]c1=O
Homo sapiens
  Km: 23 µM

## O=c1[nH]c(=O)n([C@H]2C[C@H](O)[C@@H](CO)O2)cc1F
Homo sapiens
  Km: 96 µM

## N#CC(C#N)=Cc1cn([C@H]2C[C@H](O)[C@@H](CO)O2)c(=O)[nH]c1=O
Vaccinia virus
  EC50: 17 µM
Cowpox virus [1]
  EC50: 21 µM
Cowpox virus [2]
  EC50: 46 µM
Cowpox virus [3]
  EC50: 1.9 µM
Human alphaherpesvirus 1 [4]
  EC50: 11 µM
Human alphaherpesvirus 1 [5]
  EC50: 14 µM
Human alphaherpesvirus 2 [6]
  EC50: 11 µM
Human alphaherpesvirus 2 [7]
  EC50: 12 µM
Human alphaherpesvirus 3
  EC50: 15 µM
Homo sapiens
  Km: 113 µM

## CCOC(=O)/C(C#N)=C/c1cn([C@H]2C[C@H](O)[C@@H](CO)O2)c(=O)[nH]c1=O
Vaccinia virus
  EC50: 18 µM
Cowpox virus [1]
  EC50: 11 µM
Cowpox virus [2]
  EC50: 71 µM
Cowpox virus [3]
  EC50: 1.9 µM
Human alphaherpesvirus 1 [4]
  EC50: 7.6 µM
Human alphaherpesvirus 1 [5]
  EC50: 16 µM
Human alphaherpesvirus 2 [6]
  EC50: 8.3 µM
Human alphaherpesvirus 2 [7]
  EC50: 11 µM
Human alphaherpesvirus 3
  EC50: 48 µM
Homo sapiens
  Km: 118 µM

## O=c1[nH]cc(C(F)(F)F)c(=O)[nH]1
Homo sapiens
  Km: 47 µM

## Nc1nc(=O)n([C@@H]2O[C@H](CO)[C@@H](O)[C@@H]2F)cc1I
Homo sapiens
  Km: > 135 µM

B1: Thymidine kinase (Vaccinia virus (strain Western Reserve) (VACV) (Vaccinia virus (strainWR))), P68563 (protein)
chain: MNGGHIQLIIGPMFSGKSTELIRRVRRYQIAQYKCVTIKYSNDNRYGTGLWTHDKNNFEALEATKLCDVLESITDFSVIGIDEGQFFPDIVEFCERMANEGKIVIVAALDGTFQRKPFNNILNLIPLSEMVVKLTAVCMKCFKEASFSKRLGEETEIEIIGGNDMYQSVCRKCYIDS
[8]
  Km: 97 µM
[9]
  Km: 13 µM
[10]
  Km: 9.6 µM
[11]
  Km: > 135 µM
[12]
  Km: 30 µM
[13]
  Km: 113 µM
[14]
  Km: 14 µM
